Three compounds from patent US6743913B2, “Pyrrolothiazine and pyrrolothiazepine compounds having serotonin-2 receptor antagonistic and α-1-blocking action” (Daiichi Suntory Pharma Co., Ltd., priority 1997, dated 2004) can be followed below.

The test system of test [1] is α1 receptors. In words: Anti-α1 action: norepinephrine-induced tonic contraction of isolated thoracic aorta. Conditions: tonic contraction by 10^−5 M norepinephrine taken as 100%, guinea pig thoracic aorta. The protocol: The thoracic aorta of each Hartley male guinea pig (body weight: 300-500 g) was excised. A preparation cut in a helical form was suspended under 1 g load in a Magnus cylinder filled with the Tyrode solution which had been aerated with a gas mixture of 95% O2 and 5% CO2 and maintained at 37° C. Using an isometric transducer (“TB-612J”, manufactured by Nihon Kohden Corporation) and a pressure preamplifier (“AP-620G”, manufactured by Nihon Kohden Corporation), variations in tension were measured. The isometric tensions were recorded on a thermal pen-writing recorder (“WT-647G”, manufactured by Nihon Kohden Corporation). Taking the tonic contraction induced by 10^−5 M norepinephrine (NE) as 100%, the percent contractions upon addition of each test drug at 10^−8 M and 10^−7 M were determined and recorded as α1 action.

Test [2] has as its system serotonin-2 receptors. Description: Anti-serotonin (5-HT) action: 5-HT-induced contraction of isolated superior mesenteric artery. Conditions: contraction by 10^−5 M 5-HT taken as 100%, guinea pig superior mesenteric artery. The protocol:
(2) Anti-serotonin (5-HT) Action
A preparation cut in a helical form was suspended under resting tension of 0.3 g in a Magnus cylinder filled with the Tyrode solution which had been aerated with a gas mixture of 95% O2 and 5% CO2 and maintained at 37° C. Using an isometric transducer (“UL-10”, manufactured by SHINKOH K.K.) and a pressure preamplifier (“DSA-605A”, manufactured by SHINKOH K.K.), variations in tension were measured. The isometric tensions were recorded on a pen-writing recorder (“VP-6537A”, manufactured by NATIONAL K.K.). Taking the contraction induced by 10^−5 M serotonin (5-HT) as 100%, the percent contractions by 10^−5 M 5-HT in the presence of each test drug at 10^−7 M and 10^−6 M were determined as anti-5-HT action.

For the compound `CN1CC(=NO)c2c(ccn2CCCCN2CCC(C(=O)c3ccc(F)cc3)CC2)S1(=O)=O` [Compound 28, 5-[4-[4-(4-fluorobenzoyl)piperidino]-butyl]-4-hydroxyimino-2-methyl-2,3,4,5-tetrahydropyrrolo[2,3-e][1,2]thiazine 1,1-dioxide], the “Anti α1 action (% of Control)” value is reported as 45.8 % of Control in test [1] (test drug 10^−7 M) and 80.0 % of Control in test [1] (test drug 10^−8 M). In addition, the “Anti 5-HT action (% of Control)” value in test [2] (test drug 10^−6 M) is on record as 30.2 % of Control; in test [2] (test drug 10^−7 M), 73.5 % of Control.
The matching figures for `CN1CC(=O)c2c(ccn2CCCCN2CCC(C(=O)c3ccc(F)cc3)CC2)S1(=O)=O` [Compound 22, 5-[4-[4-(4-fluorobenzoyl)piperidino]butyl]-2-methyl-2,3,4,5-tetrahydropyrrolo[2,3-e][1,2]thiazin-4-one 1,1-dioxide]: 43.2 % of Control, 66.6 % of Control, 41.1 % of Control and 80.4 % of Control.
The matching figures for `CN1CCC(=NO)c2c(ccn2CCCCN2CCC(C(=O)c3ccc(F)cc3)CC2)S1(=O)=O` [Compound 29, 6-[4-[4-(4-fluorobenzoyl)piperidino]-butyl]-5-hydroxyimino-2-methyl-3,4,5,6-tetrahydro-2H-pyrrolo[2,3-f][1,2]thiazepine 1,1-dioxide]: 33.4 % of Control, 83.1 % of Control, 32.5 % of Control and 79.0 % of Control.
